These results are taken from patent US20170049908A1 (priority 2015, published 2017).

Data set [1] deals with Ramos cells. In words: cells. To be noted: Homo sapiens, 72 h, read-out: EC50 in picoM, Ramos.
Data set [2] has as its system SU-DHL-8 cells. In words: cells. As to conditions: Homo sapiens, SU-DHL-8, 72 h, read-out: EC50 in picoM, SUDHL8.
Data set [3] deals with SU-DHL-8 cells. To be noted: for EC50: read-out: EC50 in picoM, SUDHL8, Table 3, agents and agent-linker intermediates, 3 days incubation.
Data set [4] concerns Ramos cells. To be noted: for EC50: read-out: EC50 in picoM, Ramos, Table 3, agents and agent-linker intermediates, 3 days incubation.
The subject of data set [5] is HL60, U937, MV411, Hut78, H929, and RAMOS. Put plainly: Cytotoxic activity on six human blood cancer cell types with and without ATRA (overall statements). To be noted: all cell lines tested except RAMOS. Format: cell-based. As for the experimental part: Agent loading (e.g., “n” of Formula (I)) was determined to be about 4.
In this study and as determined by antibody cell staining, and with the exception of HL-60 cells, all cells expressed various levels of cell surface CD38 prior to ATRA addition.

As a reminder, the EC50 is the concentration at which the effect is half-maximal.

Like-named read-outs stand apart in the source and are kept apart here. Where only a bound is given, the exact number is not on record here.

For `C[C@]12CC[C@H](OC(=O)NCCCNCCCN)C[C@H]1CC[C@@H]1[C@@H]2CC[C@]2(C)[C@H](c3ccc(=O)oc3)CC[C@]12O` [CEN-373, 5-{(1S,2S,5S,7R,10R,11S,14S,15R)-5-[3-(3-Aminopropylamino)propylaminocarbonyloxy]-11-hydroxy-2,15-dimethyltetracyclo[8.7.0.02, 7.011, 15]heptadec-14-yl}-2-pyranone], the EC50 in the data set on Ramos cells [1] turned out to be 4 nM; in the data set with SU-DHL-8 cells [2], 5.9 nM.
As for `C[C@]12CC[C@H](OC3OC[C@H](N)[C@@H](O)[C@@H]3O)C=C1CC[C@@H]1[C@@H]2CC[C@]2(C)[C@@H](c3ccc(=O)oc3)CC[C@]12O` (stereo partly drawn) [CEN09-106, Scillarenin-4-amino-4-deoxy-L-xylopyranoside], the EC50 in the data set on SU-DHL-8 cells [3] is 2.07 nM; in the data set on Ramos cells [4], 1.9 nM.
Take `C[C@]1(OC(=O)NCCCN2CCN(CCCN)CC2)CC[C@@]2(C)[C@H](CC[C@@H]3[C@@H]2CC[C@]2(C)[C@@](C)(C4=CC(=O)OC4)CC[C@]32O)C1` [CEN-381, 4-(3-{(1S,2S,5S,7R,10R,11S,14R,15R)-11-Hydroxy-2,5,14,15-tetramethyl-14-(5-oxo-2H-fur-3-yl)tetracyclo[8.7.0.02, 7.011, 15]heptadec-5-yloxycarbonylamino}propyl)-1-(3-aminopropyl)piperazine]: the EC50 with Ramos cells [1] and with SU-DHL-8 cells [2] was above 50 nM in each case.
For `C[C@]12CC[C@H](O)C[C@H]1CC[C@@H]1[C@@H]2CC[C@]2(C)[C@@H](C3=CC(=O)OC3)CC[C@]12O` [Digitoxigenin, reference compound], the EC50 in the data set on Ramos cells [1] and in the data set on SU-DHL-8 cells [2] was above 50 nM in each case.
Consider `C[C@]1(OC(=O)NCCCN2CCN(CCCN)CC2)CC[C@@]2(C)[C@H](CC[C@@H]3[C@@H]2CC[C@]2(C)[C@](C)(c4ccc(=O)oc4)CC[C@]32O)C1` [CEN-371, 4-(3-{(1S,2S,5S,7R,10R,11S,14S,15R)-11-Hydroxy-2,5,14,15-tetramethyl-14-(6-oxo-3-pyranyl)tetracyclo[8 0.7.0.02, 7.011, 15]heptadec-5-yloxycarbonylamino}propyl)-1-(3-aminopropyl)piperazine], for which the “cytotoxic effect in SU-DHL-8 cells, in words” value in the data set with SU-DHL-8 cells [3] (FIG. 2 and FIG. 3 legends, unconjugated antibody, linker-agent and agents) was “modestly active”. For the same compound, the EC50 in the data set with SU-DHL-8 cells [3] came out at 11 nM; in the data set with Ramos cells [4], 7.81 nM. The “cytotoxic effect in Ramos cells, in words” value in the data set on Ramos cells [4] (FIG. 4 legend, unconjugated antibody, linker-agent and agents) is listed as “modestly active”.
For `CC1=C(/C=C/C(C)=C/C=C/C(C)=C/C(=O)O)C(C)(C)CCC1` [ATRA, all-trans-retinoic acid], the “effect of ATRA alone on cell growth” value in data set [5] is given as “slowed cell growth”.
`C[C@]12CC[C@H](O)C[C@H]1CC[C@@H]1[C@@H]2CC[C@]2(C)[C@@H](c3ccc(=O)oc3)CC[C@]12O` [Bufalin, reference compound]: the “cytotoxic effect in SU-DHL-8 cells, in words” value in the data set with SU-DHL-8 cells [3] is “modestly active”. Moreover, the EC50 in the data set on Ramos cells [1] stood at 7.3 nM; with SU-DHL-8 cells [2], 16 nM. Besides, in the data set on Ramos cells [4], the “cytotoxic effect in Ramos cells, in words” value is listed as “modestly active”.
`CN(CCCN)CCCNC(=O)O[C@H]1CC[C@@]2(C)[C@H](CC[C@@H]3[C@@H]2CC[C@]2(C)[C@H](c4ccc(=O)oc4)CC[C@]32O)C1` [CEN-372, 5-[(1S,2S,5S,7R,10R,11S,14S,15R)-5-{3-[N-Methyl(3-aminopropyl)amino]propylaminocarbonyloxy}-11-hydroxy-2,15-dimethyltetracyclo[8.7.0.02, 7.011, 15]heptadec-14-yl]-2-pyranone]: the EC50 in the data set on Ramos cells [1] came out at 3.6 nM; with SU-DHL-8 cells [2] it was 4.4 nM.
